In patent US5015578A, “BMY-41950 antitumor antibiotic” (Bristol-Myers Squibb Company, priority 1990, dated 1991):
≈ marks a conversion by molar mass, not a printed value.

How the values were obtained:
[1] = system: HCT-116 (human colon cancer cell clone); test: In vitro cytotoxicity, HCT-116 cells (crystal violet); type: cell-based; settings: 72 hours, 50% cell death or growth inhibition; for IC50: Homo sapiens, HCT-116, read-out: In Vitro Antitumor Activity IC50, HCT-116
Method: (§1) BMY-41950 was tested for in vitro cytotoxic activity against a murine and a human tumor cell line. In vivo it was tested for activity against a murine leukemia tumor model. In vitro, mitomycin C and cisplatin were used as the reference compounds, while etoposide (VP-16) was used as the in vivo reference.
(§2) B16-F10 (murine melanoma) and HCT-116 (human colon cancer cell clone) cells were cultured in Complete McCoys Media. The media consists of 420 ml McCoys 5A media plus 500 mg sodium bicarbonate in 6 ml water, 6.56 mg L-serine. 1.5 mg L-asparagine and 82.4 mg sodium pyruvate in 2 ml water. 6.25 ml essential amino acids (50X, Gibco), 3.0 ml non-essential amino acids (100X, Gibco), 3 ml L-glutamine (200MM), 3 ml MEM vitamins (Gibco), 6.25 ml penicillin/streptomycin (Gibco) and 50 ml of heat-inactivated defined fetal calf serum.
(§3) The two cell lines are harvested during logarithmic phase cell growth and 3600 cells in 150 microliter media were placed in each well of a 96 well microtiter plate. After 24 hours incubation at 37 degrees Celsius in a 95% air/5% carbon dioxide humidified incubator to allow the cells to attach to the plate, fifty microliters of sample/reference drug is added to 11 of 12 of the top row of wells while 50 microliters of media is added to the 12th. The drugs/media are serially diluted (4 fold dilutions) down the 8 wells of the plate. The cells in the presence of drug/media are then incubated for 72 hours. After fixing with 10% formalin, cells killed by the drug were washed off the plate while those surviving cells are stained with 0.0075% crystal violet. After drying, the stain is solubilized with 10% ethanol and 1% acetic acid, the developed plate quantitated on a Dynatech MR 600 plate reader and the IC50 values (drug concentration at which 50% cell death or growth inhibition occurs) calculated.

[2] = system: B16-F10 (murine melanoma); test: In vitro cytotoxicity, B16-F10 cells (crystal violet); type: cell-based; settings: 72 hours, 50% cell death or growth inhibition; for IC50: Mus musculus, B16-F10, read-out: In Vitro Antitumor Activity IC50, B16-F10
Method: as §1, §2, §3

[3] = system: lymphocytic leukemia P388 cells; test: In vivo activity in P388 murine leukemia model; parameters: species or system murine (female CDF1 mice); settings: days 1-5
Method: as §1
In vivo activity of BMY-41950 was determined in a murine leukemia tumor system. Female CDF1 mice were intraperitoneally inoculated with 0.5 ml of diluted ascitic fluid containing 10^6 lymphocytic leukemia P388 cells. Ten mice were untreated and the median survival time of this group was 10 days. Three groups of 4 mice each were treated with BMY-41950 on days 1, 2, 3, 4 and 5 post tumor implant. The drug was administered ip after being initially dissolved in DMSO, Tween 80 and buffered saline. […] Thus the % T/C (survival time of drug treated/survival time of untreated controls×100) was 130%. The criteria for antitumor activity in this murine tumor test is a % T/C of 125 or greater. Thus. BMY-41950 fulfilled the criteria for antitumor activity in the P388 murine leukemia antitumor model.

[4] = system: Staphylococcus aureus A9537; test: MIC vs. Staphylococcus aureus A9537, in vitro antimicrobial screening; type: cell-based; settings: read-out: MIC (Minimum Inhibitory Concentration)
Solubility = type: physicochemical
[5] = system: Enterococcus faecalis A20688; test: MIC vs. Enterococcus faecalis A20688, in vitro antimicrobial screening; type: cell-based; settings: read-out: MIC (Minimum Inhibitory Concentration)

| SMILES | IC50 [1] [µg/mL] | IC50 [2] [µg/mL] | In Vitro Antitumor Activity IC50, HCT-116 [1] [µg/mL] | In Vitro Antitumor Activity IC50, B16-F10 [2] [µg/mL] | % T/C (survival time of drug treated/survival time of untreated controls×100) ([3]; 2 mg/kg/day ip, criterion for activity 125 or greater) [%] | median survival time ([3]; 2 mg/kg/day ip, untreated controls 10 days) [days] | drug-induced toxicity / deaths ([3]; 18 and 6 mg/kg/day ip) | MIC [4] [µg/mL] | Solubility in CHCl3-CH3OH (Solubility; CHCl3-CH3OH (2:1 v/v)) | Solubility in dimethylsulfoxide (DMSO) (Solubility; dimethylsulfoxide (DMSO)) | Solubility in tetrahydrofuran (THF) (Solubility; tetrahydrofuran (THF)) | MIC [5] [µg/mL] |
| --- | --- | --- | --- | --- | --- | --- | --- | --- | --- | --- | --- | --- |
| CO[C@@]12[C@H](COC(N)=O)C3=C(C(=O)C(C)=C(N)C3=O)N1C[C@@H]1N[C@@H]12 [Mitomycin C] | 0.98 (≈ 2.93 µM) | 0.98 (≈ 2.93 µM) |  |  |  |  |  |  |  |  |  |  |
| N.N.[Cl][Pt][Cl] [Cisplatin] |  |  | 15.6 | 3.9 |  |  |  |  |  |  |  |  |
| CNC1CC2OC(C)(C1OC)n1c3ccccc3c3c4c(c5c6ccccc6n2c5c31)C(=O)NC4=O (centres unmarked) [BMY-41950, 7-oxostaurosporine] | 0.24 (≈ 0.499 µM) | 0.98 (≈ 2.04 µM) |  |  | 130 | 13 | suffered drug-induced toxicity and all mice died prior to day 7 | 6.25 (≈ 13 µM) | soluble | soluble | soluble | 12.5 (≈ 26 µM) |
